Source: ChEMBL document CHEMBL1201862, “PubChem BioAssay data set” (2004)
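The compound was tested at five concentrations on cells cultured in 96-well plates, with a 48-hour exposure period. Abbreviation: GI50, concentration required for 50% inhibition of growth.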 Activity calls are given as the source filed them. Cut-off read from the data, not from the text of the source: active = GI50 up to about 1.1 µM and inactive = higher.

Assays:
Test in all cases: NCI-60 cell line screen, 48 h
HOP-92 = test system: HOP-92
A549 = test system: A549
UO-31 = test system: UO-31
KM12 = test system: KM12
HT-29 = test system: HT-29
786-0 = test system: 786-0
SK-MEL-28 = test system: SK-MEL-28
SN12C = test system: SN12C
SNB-19 = test system: SNB-19
SF-295 = test system: SF-295
HCC 2998 = test system: HCC 2998
TK-10 = test system: TK-10
HCT-116 = test system: HCT-116
HOP-62 = test system: HOP-62
HCT-15 = test system: HCT-15
U-251 = test system: U-251
IGROV-1 = test system: IGROV-1
SK-OV-3 = test system: SK-OV-3
SF-539 = test system: SF-539
SW-620 = test system: SW-620
UACC-257 = test system: UACC-257
ACHN = test system: ACHN
A498 = test system: A498
SF-268 = test system: SF-268
DLD-1 = test system: DLD-1
HL-60 = test system: HL-60
LOX IMVI = test system: LOX IMVI
MOLT-4 = test system: MOLT-4
CAKI-1 = test system: CAKI-1
M14 = test system: M14
SNB-75 = test system: SNB-75
K562 = test system: K562
NCI-H460 = test system: NCI-H460
DMS-273 = test system: DMS-273
KM-20L2 = test system: KM-20L2
HOP-18 = test system: HOP-18
CCRF-CEM = test system: CCRF-CEM
NCI-H23 = test system: NCI-H23
SR = test system: SR
OVCAR-8 = test system: OVCAR-8
NCI-H522 = test system: NCI-H522
SK-MEL-2 = test system: SK-MEL-2
UACC-62 = test system: UACC-62
COLO 205 = test system: COLO 205
OVCAR-3 = test system: OVCAR-3
Malme-3M = test system: Malme-3M
OVCAR-5 = test system: OVCAR-5
SK-MEL-5 = test system: SK-MEL-5
RPMI-8226 = test system: RPMI-8226
DU-145 = test system: DU-145
OVCAR-4 = test system: OVCAR-4
EKVX = test system: EKVX
RXF 393 = test system: RXF 393
MDA-MB-231 = test system: MDA-MB-231
Hs-578T = test system: Hs-578T
T47D = test system: T47D
BT-549 = test system: BT-549
NCI/ADR-RES = test system: NCI/ADR-RES
MDA-MB-435 = test system: MDA-MB-435
PC-3 = test system: PC-3
NCI-H226 = test system: NCI-H226
MCF7 = test system: MCF7
MDA-N = test system: MDA-N

Measured: GI50

O=C(/C=N/c1ccccc1C(=O)[O-])c1cccs1.O=C(/C=N/c1ccccc1C(=O)[O-])c1cccs1.[Zn+2]
inactive: HOP-92 19600 nM | A549 73800 nM | UO-31 > 100000 nM | KM12 > 100000 nM | HT-29 > 100000 nM | 786-0 > 100000 nM | SK-MEL-28 39500 nM | SN12C > 10000 nM | SNB-19 43100 nM | SF-295 20400 nM | HCC 2998 > 10000 nM | TK-10 > 100000 nM | HCT-116 > 100000 nM | HOP-62 > 100000 nM | U-251 17500 nM | IGROV-1 31900 nM | SK-OV-3 20500 nM | SF-539 42500 nM | SW-620 67500 nM | UACC-257 20300 nM | ACHN > 100000 nM | A498 > 100000 nM | SF-268 27400 nM | DLD-1 39900 nM | HL-60 43300 nM | LOX IMVI 27400 nM | MOLT-4 34000 nM | CAKI-1 91000 nM | M14 36400 nM | SNB-75 14800 nM | K562 29200 nM | NCI-H460 71800 nM | DMS-273 > 100000 nM | KM-20L2 > 100000 nM | HOP-18 > 100000 nM | CCRF-CEM 23700 nM | NCI-H23 88300 nM | SR 46300 nM | OVCAR-8 36100 nM | NCI-H522 21100 nM | SK-MEL-2 25800 nM | UACC-62 20800 nM | COLO 205 > 100000 nM | OVCAR-3 15400 nM | Malme-3M > 10000 nM | OVCAR-5 24700 nM
> 100000 nM: HCT-15

C[C@@H]1CCC2[C@@H](C)[C@H](O[C@H]3O[C@@H]4O[C@@]5(C)CCC6[C@H](C)CCC([C@H]3C)[C@]64OO5)O[C@@H]3O[C@@]4(C)CCC1[C@@]23OO4 (stereo partly specified)
inactive: SK-MEL-28 5690 nM | DU-145 1930 nM | SNB-19 3170 nM | HOP-62 4040 nM | RXF 393 1300 nM | A498 4150 nM | SF-268 3440 nM | NCI-H226 2110 nM
active: SK-MEL-5 90 nM | HOP-92 114 nM | A549 91.4 nM | UO-31 55.9 nM | KM12 31.7 nM | HT-29 49.1 nM | RPMI-8226 12.7 nM | 786-0 361 nM | SN12C 186 nM | OVCAR-4 270 nM | EKVX 142 nM | SF-295 320 nM | HCC 2998 813 nM | TK-10 205 nM | HCT-116 17.7 nM | U-251 63.7 nM | IGROV-1 931 nM | MDA-MB-231 385 nM | SK-OV-3 452 nM | SF-539 264 nM | SW-620 41.8 nM | UACC-257 91.2 nM | ACHN 95.3 nM | HL-60 24.3 nM | LOX IMVI 25.8 nM | Hs-578T 390 nM | MOLT-4 54.6 nM | CAKI-1 270 nM | T47D 29.3 nM | M14 475 nM | SNB-75 188 nM | BT-549 55.3 nM | K562 20.2 nM | NCI-H460 67.5 nM | NCI/ADR-RES 192 nM | CCRF-CEM 46.2 nM | MDA-MB-435 60 nM | NCI-H23 41.5 nM | SR 31.8 nM | PC-3 14.8 nM | OVCAR-8 92.9 nM | MCF7 92.5 nM | MDA-N 136 nM | NCI-H522 57.7 nM | SK-MEL-2 401 nM | UACC-62 80.5 nM | COLO 205 38.8 nM | OVCAR-3 408 nM | Malme-3M 635 nM | OVCAR-5 352 nM
22 nM: HCT-15
